Experimental data reported in patent US8461328B2, “Tricyclic heterocyclic compounds, compositions and methods of use thereof” (Genentech, Inc., priority 2010, dated 2013).

Experiments:
Format in all cases: biochemical
JAK3 = target: T1, JAK3 (Homo sapiens, UniProt P52333); experiment: JAK3 inhibition (Table 4); conditions: read-out: JAK3 Ki
T1 construct: made in house; host or cells: SF9 insect cells (baculovirus)

JAK2 = target: T2, JAK2 (Homo sapiens, UniProt O60674); experiment: JAK2 inhibition (Table 4); conditions: read-out: JAK2 Ki
T2 construct: made in house; host or cells: SF9 insect cells (baculovirus)

JAK1 = target: T3, JAK1 (Homo sapiens, UniProt P23458); experiment: JAK1 inhibition (Table 4); conditions: read-out: JAK1 Ki
T3 construct: made in house; host or cells: SF9 insect cells (baculovirus)

TYK2 = target: T4, TYK2 (Homo sapiens, UniProt P29597); experiment: TYK2 inhibition (Table 4)
T4 construct: made in house; host or cells: SF9 insect cells (baculovirus)
T4 sequence (P29597 873-1187): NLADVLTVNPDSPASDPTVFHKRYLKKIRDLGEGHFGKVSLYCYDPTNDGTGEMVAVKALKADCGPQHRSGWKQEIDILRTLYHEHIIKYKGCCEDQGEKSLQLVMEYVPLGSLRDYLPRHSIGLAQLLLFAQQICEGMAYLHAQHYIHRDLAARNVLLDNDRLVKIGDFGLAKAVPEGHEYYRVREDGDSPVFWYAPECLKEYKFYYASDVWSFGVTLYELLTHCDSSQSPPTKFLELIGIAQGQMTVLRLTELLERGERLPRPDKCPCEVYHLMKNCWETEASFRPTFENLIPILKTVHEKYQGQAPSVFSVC

T1 sequence (P52333 783-1124): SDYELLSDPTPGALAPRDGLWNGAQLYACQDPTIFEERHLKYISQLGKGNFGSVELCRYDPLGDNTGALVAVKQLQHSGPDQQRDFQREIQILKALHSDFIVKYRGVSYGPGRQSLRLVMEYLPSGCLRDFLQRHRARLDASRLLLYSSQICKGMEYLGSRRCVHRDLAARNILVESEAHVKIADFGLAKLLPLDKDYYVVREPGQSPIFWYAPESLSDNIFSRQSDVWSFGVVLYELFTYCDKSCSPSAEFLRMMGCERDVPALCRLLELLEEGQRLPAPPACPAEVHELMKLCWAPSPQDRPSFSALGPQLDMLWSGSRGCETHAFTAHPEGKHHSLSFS
T3 sequence (P23458 852-1154): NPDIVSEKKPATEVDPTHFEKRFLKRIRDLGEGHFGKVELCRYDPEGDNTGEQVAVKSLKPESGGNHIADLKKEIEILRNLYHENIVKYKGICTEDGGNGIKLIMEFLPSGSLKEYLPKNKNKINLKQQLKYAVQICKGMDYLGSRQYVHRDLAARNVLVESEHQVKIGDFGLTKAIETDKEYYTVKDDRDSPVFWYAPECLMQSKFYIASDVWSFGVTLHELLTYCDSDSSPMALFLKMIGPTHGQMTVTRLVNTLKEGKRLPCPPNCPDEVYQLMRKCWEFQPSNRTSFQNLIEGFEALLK
T2 sequence (O60674 812-1132): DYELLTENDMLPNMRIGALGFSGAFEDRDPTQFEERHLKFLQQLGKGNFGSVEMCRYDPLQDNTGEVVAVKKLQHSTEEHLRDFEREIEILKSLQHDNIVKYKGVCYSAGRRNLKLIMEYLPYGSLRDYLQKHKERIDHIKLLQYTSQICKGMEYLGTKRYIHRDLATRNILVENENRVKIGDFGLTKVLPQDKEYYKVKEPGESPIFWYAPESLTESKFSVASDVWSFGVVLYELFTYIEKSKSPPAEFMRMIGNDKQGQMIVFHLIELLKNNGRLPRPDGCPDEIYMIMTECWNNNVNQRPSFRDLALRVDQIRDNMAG

OCc1nc2cnc3[nH]ccc3c2n1C1CCCCC1 [Example 675, (1-Cyclohexyl-1,6-dihydro-1,2,3,5,6-tetraaza-as-indacen-2-yl)-methanol] gave a Ki (JAK3) of 11.4 nM, a Ki (JAK2) of 6.96 nM and a Ki (JAK1) of 1.21 nM. It also gave a Ki (TYK2) of 1.78 nM.

In the case of N#CCC(=O)N1CCCC(n2c(CC3CC3)nc3cnc4[nH]ccc4c32)C1 (stereo not shown) [Example 676, 3-[3-(2-Cyclopropylmethyl-6H-1,2,3,5,6-tetraaza-as-indacen-1-yl)-piperidin-1-yl]-3-oxo-propionitrile], the Ki (JAK3) is reported as 40.2 nM, the Ki (JAK2) is reported as 7.87 nM and the Ki (JAK1) is reported as 1.36 nM. The Ki (TYK2) was 22.1 nM.

For CC(=O)NCCc1nc2cnc3[nH]ccc3c2n1C1CCCCC1 [Example 677, N-[2-(1-Cyclohexyl-1,6-dihydro-1,2,3,5,6-tetraaza-as-indacen-2-yl)-ethyl]-acetamide], the Ki (JAK3) was 32.9 nM, the Ki (JAK2) was 29.5 nM and the Ki (JAK1) was 2.47 nM. It also gave a Ki (TYK2) of 27.5 nM.

Molecule CCOC(=O)NCCc1nc2cnc3[nH]ccc3c2n1C1CCN(CC)CC1(F)F (stereo not shown) [Example 678, {2-[1-(1-Ethyl-3,3-difluoro-piperidin-4-yl)-1,6-dihydro-1,2,3,5,6-tetraaza-as-indacen-2-yl]-ethyl}-carbamic acid ethyl ester] has a Ki (JAK3) of 23.6 nM, a Ki (JAK2) of 31.8 nM and a Ki (JAK1) of 3.95 nM. The Ki (TYK2) was 276 nM.

With CCN1CC[C@@H](n2c(CCNS(=O)(=O)CC)nc3cnc4[nH]ccc4c32)[C@@H](F)C1 [Example 681, Ethanesulfonic acid {2-[1-((3S,4R)-1-ethyl-3-fluoro-piperidin-4-yl)-1,6-dihydro-1,2,3,5,6-tetraaza-as-indacen-2-yl]-ethyl}-amide] the Ki (JAK3) was 133 nM, the Ki (JAK2) was 32.6 nM and the Ki (JAK1) was 4.21 nM. For the same molecule, the Ki (TYK2) was 290 nM.

C[C@@H](O)c1nc2cnc3[nH]ccc3c2n1C1CCN(Cc2ncccc2F)CC1 [Example 682, (R)-1-{1-[1-(3-Fluoro-pyridin-2-ylmethyl)-piperidin-4-yl]-1,6-dihydro-1,2,3,5,6-tetraaza-as-indacen-2-yl}-ethanol] gave a Ki (JAK3) of 31 nM, a Ki (JAK2) of 103 nM and a Ki (JAK1) of 8.63 nM. For the same molecule, the Ki (TYK2) was 387 nM.

CC(C)(C)COCc1nc2cnc3[nH]ccc3c2n1C1CCN(CCC#N)CC1 [Example 683, 3-{4-[2-(2,2-Dimethyl-propoxymethyl)-6H-1,2,3,5,6-tetraaza-as-indacen-1-yl]-piperidin-1-yl}-propionitrile] showed a Ki (JAK3) of 308 nM, a Ki (JAK2) of 259 nM and a Ki (JAK1) of 162 nM. It also gave a Ki (TYK2) of 1750 nM.

With CO[C@H](C)c1nc2cnc3[nH]ccc3c2n1C1CCCCC1 [Example 685, 1-Cyclohexyl-2-((R)-1-methoxy-ethyl)-1,6-dihydro-1,2,3,5,6-tetraaza-as-indacene] the Ki (JAK3) was 34.4 nM, the Ki (JAK2) was 115 nM and the Ki (JAK1) was 37.1 nM. The Ki (TYK2) was 125 nM.

In the case of C[C@@H](O)c1nc2cnc3[nH]ccc3c2n1[C@@H]1CCN(S(C)(=O)=O)C1 [Example 686, (R)-1-[1-((R)-1-Methanesulfonyl-pyrrolidin-3-yl)-1,6-dihydro-1,2,3,5,6-tetraaza-as-indacen-2-yl]-ethanol], the Ki (JAK3) is reported as 15.3 nM, the Ki (JAK2) is reported as 27 nM and the Ki (JAK1) is reported as 47.4 nM. The Ki (TYK2) was 4.17 nM.

Molecule C[C@@H](O)c1nc2cnc3[nH]ccc3c2n1[C@@H]1CCNC1 [Example 687, (R)-1-((R)-1-Pyrrolidin-3-yl-1,6-dihydro-1,2,3,5,6-tetraaza-as-indacen-2-yl)-ethanol] has a Ki (JAK3) of 858 nM, a Ki (JAK2) of 1480 nM and a Ki (JAK1) of 167 nM. For the same molecule, the Ki (TYK2) was 834 nM.

For C[C@@H](O)c1nc2cnc3[nH]ccc3c2n1[C@@H]1CCC[C@@H](O)C1 [Example 689, (1R,3R)-3-[2-((R)-1-Hydroxy-ethyl)-6H-1,2,3,5,6-tetraaza-as-indacen-1-yl]-cyclohexanol], the Ki (JAK3) was 57 nM, the Ki (JAK2) was 52.4 nM and the Ki (JAK1) was 2.73 nM. The Ki (TYK2) was 5.59 nM.

With CC(C)(C)[S+]([O-])NCc1nc2cnc3[nH]ccc3c2n1C1CCCCC1 (stereo not shown) [Example 690, 2-Methyl-propane-2-sulfinic acid (1-cyclohyl-1,6-dihydro-1,2,3,5,6-tetraaza-as-indacen-2-ylmethyl)-amide] the Ki (JAK3) was 229 nM, the Ki (JAK2) was 199 nM and the Ki (JAK1) was 62.2 nM. It also gave a Ki (TYK2) of 270 nM.

Molecule CC(CF)N1CCC(n2c([C@@H](C)O)nc3cnc4[nH]ccc4c32)CC1 (stereo partly shown) [Example 691, 1-{1-[1-(2-Fluoro-1-methyl-ethyl)-piperidin-4-yl]-1,6-dihydro-1,2,3,5,6-tetraaza-as-indacen-2-yl}-ethanol] has a Ki (JAK3) of 206 nM, a Ki (JAK2) of 320 nM and a Ki (JAK1) of 61.4 nM. For the same molecule, the Ki (TYK2) was 750 nM.

With CS(=O)(=O)NCCc1nc2cnc3[nH]ccc3c2n1C1CC2CCC1C2 (stereo not shown) [Example 694, N-[2-(1-Bicyclo[2.2.1]hept-2-yl-1,6-dihydro-1,2,3,5,6-tetraaza-as-indacen-2-yl)-ethyl]-methanesulfonamide] the Ki (JAK3) was 20.3 nM, the Ki (JAK2) was 5.63 nM and the Ki (JAK1) was 0.55 nM. For the same molecule, the Ki (TYK2) was 7.58 nM.

N#CCCN1CCC(n2c(CNCC(F)(F)F)nc3cnc4[nH]ccc4c32)CC1 [Example 695, 3-(4-{2-[(2,2,2-Trifluoro-ethylamino)-methyl]-6H-1,2,3,5,6-tetraaza-as-indacen-1-yl}-piperidin-1-yl)-propionitrile] was tested, and the Ki (JAK3) was 63.1 nM, the Ki (JAK2) was 77.7 nM and the Ki (JAK1) was 28.4 nM. The Ki (TYK2) was 483 nM.

O=S1(=O)CCCN1Cc1nc2cnc3[nH]ccc3c2n1C1CCCCC1 [Example 696, 1-Cyclohyl-2-(1,1-dioxo-1,1,6-isothiazolidin-2-ylmethyl)-1,6-dihydro-1,2,3,5,6-tetraaza-as-indacene] gave a Ki (JAK3) of 57.5 nM, a Ki (JAK2) of 66.8 nM and a Ki (JAK1) of 13.6 nM. The Ki (TYK2) was 49.6 nM.

CC(F)CN1CCC(n2c([C@@H](C)O)nc3cnc4[nH]ccc4c32)CC1 (stereo partly drawn) [Example 697, (R)-1-{1-[1-(2-Fluoro-propyl)-piperidin-4-yl]-1,6-dihydro-1,2,3,5,6-tetraaza-as-indacen-2-yl}-ethanol] was tested, and the Ki (JAK3) was 36.1 nM, the Ki (JAK2) was 64.8 nM and the Ki (JAK1) was 3.1 nM. The Ki (TYK2) was 32.5 nM.

Work on Cc1nc2cnc3[nH]ccc3c2n1C1CCN(CC(O)CO)CC1 (stereo not shown) [Example 698, 3-[4-(2-Methyl-6H-1,2,3,5,6-tetraaza-as-indacen-1-yl)-piperidin-1-yl]-propane-1,2-diol] yielded a Ki (JAK3) of 66.9 nM, a Ki (JAK2) of 25.6 nM and a Ki (JAK1) of 6.41 nM. For the same molecule, the Ki (TYK2) was 74.4 nM.

With CC(O)c1nc2cnc3[nH]ccc3c2n1CC1CCCO1 (stereo not shown) [Example 699, 1-[1-(Tetrahydro-furan-2-ylmethyl)-1,6-dihydro-1,2,3,5,6-tetraaza-as-indacen-2-yl]-ethanol] the Ki (JAK3) was 280 nM, the Ki (JAK2) was 131 nM and the Ki (JAK1) was 235 nM. For the same molecule, the Ki (TYK2) was 1070 nM.

For CC(O)c1nc2cnc3[nH]ccc3c2n1CC1CCCO1 (stereo not shown) [Example 700, 1-[1-(Tetrahydro-furan-2-ylmethyl)-1,6-dihydro-1,2,3,5,6-tetraaza-as-indacen-2-yl]-ethanol], the Ki (JAK3) was 546 nM, the Ki (JAK2) was 617 nM and the Ki (JAK1) was 478 nM. For the same molecule, the Ki (TYK2) was 1430 nM.

Cc1nc2cnc3[nH]ccc3c2n1C1CCN(CC(C)O)CC1 (stereo not shown) [Example 701, 1-[4-(2-Methyl-6H-1,2,3,5,6-tetraaza-as-indacen-1-yl)-piperidin-1-yl]-propan-2-ol] gave a Ki (JAK3) of 234 nM, a Ki (JAK2) of 60.6 nM and a Ki (JAK1) of 15.9 nM. It also gave a Ki (TYK2) of 202 nM.

C[C@@H](O)c1nc2cnc3[nH]ccc3c2n1C1CCN(c2cccc(C#N)n2)CC1 [Example 702, 4-[2-((R)-1-Hydroxy-ethyl)-6H-1,2,3,5,6-tetraaza-as-indacen-1-yl]-3,4,5,6-tetrahydro-2H-[1,2]bipyridinyl-6′-carbonitrile] showed a Ki (JAK3) of 40.6 nM, a Ki (JAK2) of 26.4 nM and a Ki (JAK1) of 3.69 nM. The Ki (TYK2) was 23.7 nM.

Work on Cc1noc(CN2CCC(n3c([C@@H](C)O)nc4cnc5[nH]ccc5c43)CC2)n1 [Example 703, (R)-1-{1-[1-(3-Methyl-[1,2,4]oxadiazol-5-ylmethyl)-piperidin-4-yl]-1,6-dihydro-1,2,3,5,6-tetraaza-as-indacen-2-yl}-ethanol] yielded a Ki (JAK3) of 5.01 nM, a Ki (JAK2) of 30.1 nM and a Ki (JAK1) of 1.97 nM. The Ki (TYK2) was 182 nM.

C[C@@H](O)c1nc2cnc3[nH]ccc3c2n1[C@H]1CCN(Cc2cnco2)C[C@H]1F [Example 704, 1-[1-(3-Fluoro-1-oxazol-5-ylmethyl-piperidin-4-yl)-1,6-dihydro-1,2,3,5,6-tetraaza-as-indacen-2-yl]-ethanol] was tested, and the Ki (JAK3) was 12.8 nM, the Ki (JAK2) was 56.7 nM and the Ki (JAK1) was 2.45 nM. For the same molecule, the Ki (TYK2) was 138 nM.

OC1CCN(Cc2nc3cnc4[nH]ccc4c3n2C2CCN(CC(F)F)CC2)CC1 [Example 705, 1-{1-[1-(2,2-Difluoro-ethyl)-piperidin-4-yl]-1,6-dihydro-1,2,3,5,6-tetraaza-as-indacen-2-ylmethyl}-piperidin-4-ol] was tested, and the Ki (JAK3) was 311 nM, the Ki (JAK2) was 340 nM and the Ki (JAK1) was 48.6 nM. For the same molecule, the Ki (TYK2) was 665 nM.

OC1CCC(n2cnc3cnc4[nH]ccc4c32)C1 (stereo not shown) [Example 708, 3-(6H-1,2,3,5,6-Tetraaza-as-indacen-1-yl)-cyclopentanol] was tested, and the Ki (JAK3) was 79.8 nM, the Ki (JAK2) was 38.6 nM and the Ki (JAK1) was 11.4 nM. It also gave a Ki (TYK2) of 77.5 nM.

O[C@H]1CC[C@@H](n2cnc3cnc4[nH]ccc4c32)C1 [Example 709, (1S,3R)-3-(6H-1,2,3,5,6-Tetraaza-as-indacen-1-yl)-cyclopentanol] showed a Ki (JAK3) of 56.3 nM, a Ki (JAK2) of 24 nM and a Ki (JAK1) of 6.03 nM. The Ki (TYK2) was 44.4 nM.

O[C@@H]1CC[C@H](n2cnc3cnc4[nH]ccc4c32)C1 [Example 710, (1R,3S)-3-(6H-1,2,3,5,6-Tetraaza-as-indacen-1-yl)-cyclopentanol] gave a Ki (JAK3) of 45 nM, a Ki (JAK2) of 34.3 nM and a Ki (JAK1) of 6.85 nM. It also gave a Ki (TYK2) of 50.6 nM.
